Measured values reported in US4599346A, “Propan-2-ol derivatives, a process for their production and medicaments containing these compounds” (Ludwig Heumann & Co., GmbH, priority 1983, dated 1986).

Assays:
[1] = background statement; result in words; cited from earlier work
histamine-H2 -receptors = target: T1, histamine-H2 -receptors (Cavia porcellus, UniProt P47747); assay: H2-antagonistic activity: pA2 values in vitro on the isolated atrium of guinea pigs
T1 construct: in vitro on the isolated atrium of guinea pigs; from tissue; host or cells: isolated atrium of guinea pigs
T1 sequence (P47747 whole entry): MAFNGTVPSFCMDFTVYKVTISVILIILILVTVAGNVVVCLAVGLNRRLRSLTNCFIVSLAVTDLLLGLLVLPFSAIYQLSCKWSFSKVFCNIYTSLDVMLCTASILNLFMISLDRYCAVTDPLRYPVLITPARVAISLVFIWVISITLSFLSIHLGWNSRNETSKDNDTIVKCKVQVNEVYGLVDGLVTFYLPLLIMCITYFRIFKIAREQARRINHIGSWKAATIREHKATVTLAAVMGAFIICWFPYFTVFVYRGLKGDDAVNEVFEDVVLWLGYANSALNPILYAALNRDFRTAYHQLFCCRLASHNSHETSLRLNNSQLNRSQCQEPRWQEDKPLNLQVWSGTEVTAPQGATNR
Source text: J. Pharmacol. Chemother.", 27, 427 (1966) and Black et al., "Nature", 236, 385 (1971)].
A recognized method of measuring H2 -antagonistic activity is based on determination of the pA2 -values in vitro on the isolated atrium of guinea pigs

Kb (histamine-H2 -receptors)	SMILES	half life [1]
–	CN/C(=N/CCSCc1nc[nH]c1C)NC#N [Cimetidine]	relatively short half life
49 nM	Nc1n[s+]([O-])nc1NCC(O)COc1cccc(CN2CCCCC2)c1 (stereo not drawn) [Example 1, 4-amino-3-[2-hydroxy-3-[3-(1-piperidinylmethyl)-phenoxy]propyl]-amino-1,2,5-thiadiazole-1-oxide]	–
72.4 nM	Nc1c(NCC(O)COc2cccc(CN3CCCCC3)c2)c(=O)c1=O (stereo not drawn) [Example 2, 2-amino-1-[2-hydroxy-3-[3-(1-piperidinylmethyl)-phenoxy]propyl]-aminocyclobut-1-ene-3,4-dione]	–
